{"source": "patent US6358885B1", "about": "“Substituted phenylheterocyclic herbicides” (Mississippi State University, priority 1992, dated 2002)", "key": {"lambsquarters": {"tested_on": "lambsquarters", "test": "Test B preemergence/postemergence greenhouse plant response rating 0 to 10", "assay_type": "in vivo, Chenopodium album", "conditions": "0 to 10 scale", "method_in_brief": "(§1)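 Postemergence treatment of plants two to eighteen cm tall ran alongside preemergence treatment of planted seed, each using compound in a non-phytotoxic solvent.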"}, "yellow nutsedge": {"tested_on": "yellow nutsedge", "test": "Test G preemergence/postemergence greenhouse plant response rating 0 to 100", "assay_type": "in vivo, Cyperus esculentus", "conditions": "Rate 125 g/ha, 0 to 100 scale", "from_the_text": "(§2) Seeds, rhizomes, or plant parts of alfalfa (Medicago ativa), annual bluegrass (Poa annua), bermudagrass (Cynodon dactylon), broadleaf signalgrass (Brachiaria plantaginea), common purslane (Portulaca oleracea), common ragweed (Ambrosia elatior), […] (Paspalum dilatatum), goosegrass (Eleusine indica), guineagrass (Panicum maximum), […] exaltata), johnsongrass (Sorghum halepense), large crabgrass (Digitaria sanguinalis), peanut (Arachis hypoagaea), pitted morningglory (Ipomoea lacunosa), purple nutsedge (Cyperus rotundus), sandbur (Cenchrus echinatus), smooth crabgrass (Digitaria ischaemum) and yellow nutsedge (Cyperus esculentus) were planted into greenhouse pots containing greenhouse planting medium. Each pot contained only one plant species. The test compound was dissolved in a non-phytotoxic solvent and applied preemergence and/or postemergence to the plants. Preemergence applications were made within one day of planting the seeds or plant parts. Postemergence applications were applied when the plants were in the two to four leaf stage (three to twenty cm). Test chemicals were dissolved in a non-phytotoxic solvent and applied preemergence and postemergence to the plants. Untreated control plants and treated plants were placed in the greenhouse and visually evaluated for injury at 13 to 21 days after herbicide application. […] A dash (-) response indicates no test result."}, "wheat": {"tested_on": "wheat", "test": "Test B preemergence/postemergence greenhouse plant response rating 0 to 10", "assay_type": "in vivo, Triticum aestivum", "conditions": "0 to 10 scale", "method_in_brief": "as §1"}, "soybean": {"tested_on": "soybean", "test": "Test B preemergence/postemergence greenhouse plant response rating 0 to 10", "assay_type": "in vivo, Glycine max", "conditions": "0 to 10 scale", "method_in_brief": "as §1"}, "rice": {"tested_on": "rice", "test": "Test B preemergence/postemergence greenhouse plant response rating 0 to 10", "assay_type": "in vivo, Oryza sativa", "conditions": "0 to 10 scale", "method_in_brief": "as §1"}, "peanut": {"tested_on": "peanut", "test": "Test G preemergence/postemergence greenhouse plant response rating 0 to 100", "assay_type": "in vivo, Arachis hypoagaea", "conditions": "0 to 100 scale", "from_the_text": "as §2"}, "wild oat": {"tested_on": "wild oat", "test": "Test B preemergence/postemergence greenhouse plant response rating 0 to 10", "assay_type": "in vivo, Avena fatua", "conditions": "0 to 10 scale", "method_in_brief": "as §1"}, "wild buckwheat": {"tested_on": "wild buckwheat", "test": "Test B preemergence/postemergence greenhouse plant response rating 0 to 10", "assay_type": "in vivo, Polygonum convolvulus", "conditions": "0 to 10 scale", "method_in_brief": "as §1"}}, "data": [{"smiles": "CC(C)Oc1cc(-c2nn3c(c2Cl)CCCC3)c(F)cc1Cl", "note": "[Compound 21]", "values": [{"measurement": "Plant response rating, Lambsquarter", "setting": "lambsquarters; POSTEMERGENCE, Rate 50 g/ha", "result": 10}, {"measurement": "Plant response rating, Lambsquarter", "setting": "lambsquarters; POSTEMERGENCE, Rate 200 g/ha", "result": 10}, {"measurement": "Plant response rating, Lambsquarter", "setting": "lambsquarters; PREEMERGENCE, Rate 50 g/ha", "result": 10}, {"measurement": "Plant response rating, Lambsquarter", "setting": "lambsquarters; Rate 200 g/ha, PREEMERGENCE", "result": 10}, {"measurement": "Plant response rating, Yellow Nutsedge", "setting": "yellow nutsedge; POSTEMERGENCE", "result": 0}, {"measurement": "Plant response rating, Yellow Nutsedge", "setting": "yellow nutsedge; PREEMERGENCE", "result": 0}, {"measurement": "Plant response rating, Wheat", "setting": "wheat; POSTEMERGENCE, Rate 50 g/ha", "result": 3}, {"measurement": "Plant response rating, Wheat", "setting": "wheat; POSTEMERGENCE, Rate 200 g/ha", "result": 8}, {"measurement": "Plant response rating, Wheat", "setting": "wheat; PREEMERGENCE, Rate 50 g/ha", "result": 3}, {"measurement": "Plant response rating, Wheat", "setting": "wheat; Rate 200 g/ha, PREEMERGENCE", "result": 2}, {"measurement": "Plant response rating, Soybean", "setting": "soybean; POSTEMERGENCE, Rate 50 g/ha", "result": 9}, {"measurement": "Plant response rating, Soybean", "setting": "soybean; POSTEMERGENCE, Rate 200 g/ha", "result": 9}, {"measurement": "Plant response rating, Soybean", "setting": "soybean; PREEMERGENCE, Rate 50 g/ha", "result": 0}, {"measurement": "Plant response rating, Soybean", "setting": "soybean; Rate 200 g/ha, PREEMERGENCE", "result": 2}, {"measurement": "Plant response rating, Rice", "setting": "rice; POSTEMERGENCE, Rate 50 g/ha", "result": 5}, {"measurement": "Plant response rating, Rice", "setting": "rice; POSTEMERGENCE, Rate 200 g/ha", "result": 6}, {"measurement": "Plant response rating, Rice", "setting": "rice; PREEMERGENCE, Rate 50 g/ha", "result": 0}, {"measurement": "Plant response rating, Rice", "setting": "rice; Rate 200 g/ha, PREEMERGENCE", "result": 2}, {"measurement": "Plant response rating, Peanuts", "setting": "peanut; POSTEMERGENCE, Rate 125 g/ha", "result": 0}, {"measurement": "Plant response rating, Peanuts", "setting": "peanut; POSTEMERGENCE, Rate 250 g/ha", "result": 0}, {"measurement": "Plant response rating, Peanuts", "setting": "peanut; PREEMERGENCE, Rate 125 g/ha", "result": 0}, {"measurement": "Plant response rating, Peanuts", "setting": "peanut; PREEMERGENCE, Rate 250 g/ha", "result": 20}, {"measurement": "Plant response rating, Wild oat", "setting": "wild oat; POSTEMERGENCE, Rate 50 g/ha", "result": 4}, {"measurement": "Plant response rating, Wild oat", "setting": "wild oat; POSTEMERGENCE, Rate 200 g/ha", "result": 6}, {"measurement": "Plant response rating, Wild oat", "setting": "wild oat; Rate 200 g/ha, PREEMERGENCE", "result": 6}, {"measurement": "Plant response rating, Wild buckwheat", "setting": "wild buckwheat; POSTEMERGENCE, Rate 50 g/ha", "result": 10}, {"measurement": "Plant response rating, Wild buckwheat", "setting": "wild buckwheat; POSTEMERGENCE, Rate 200 g/ha", "result": 10}, {"measurement": "Plant response rating, Wild buckwheat", "setting": "wild buckwheat; PREEMERGENCE, Rate 50 g/ha", "result": 7}, {"measurement": "Plant response rating, Wild buckwheat", "setting": "wild buckwheat; Rate 200 g/ha, PREEMERGENCE", "result": 9}]}, {"smiles": "Fc1cc(Cl)c(OCc2ccccc2)cc1-c1nn2c(c1Cl)CCCC2", "note": "[Compound 22]", "values": [{"measurement": "Plant response rating, Lambsquarter", "setting": "lambsquarters; POSTEMERGENCE, Rate 50 g/ha", "result": 8}, {"measurement": "Plant response rating, Lambsquarter", "setting": "lambsquarters; POSTEMERGENCE, Rate 200 g/ha", "result": 10}, {"measurement": "Plant response rating, Lambsquarter", "setting": "lambsquarters; PREEMERGENCE, Rate 50 g/ha", "result": 6}, {"measurement": "Plant response rating, Lambsquarter", "setting": "lambsquarters; Rate 200 g/ha, PREEMERGENCE", "result": 9}, {"measurement": "Plant response rating, Yellow Nutsedge", "setting": "yellow nutsedge; POSTEMERGENCE", "result": 0}, {"measurement": "Plant response rating, Yellow Nutsedge", "setting": "yellow nutsedge; PREEMERGENCE", "result": 0}, {"measurement": "Plant response rating, Wheat", "setting": "wheat; POSTEMERGENCE, Rate 50 g/ha", "result": 3}, {"measurement": "Plant response rating, Wheat", "setting": "wheat; POSTEMERGENCE, Rate 200 g/ha", "result": 4}, {"measurement": "Plant response rating, Wheat", "setting": "wheat; PREEMERGENCE, Rate 50 g/ha", "result": 0}, {"measurement": "Plant response rating, Wheat", "setting": "wheat; Rate 200 g/ha, PREEMERGENCE", "result": 1}, {"measurement": "Plant response rating, Soybean", "setting": "soybean; POSTEMERGENCE, Rate 50 g/ha", "result": 5}, {"measurement": "Plant response rating, Soybean", "setting": "soybean; POSTEMERGENCE, Rate 200 g/ha", "result": 6}, {"measurement": "Plant response rating, Soybean", "setting": "soybean; PREEMERGENCE, Rate 50 g/ha", "result": 0}, {"measurement": "Plant response rating, Soybean", "setting": "soybean; Rate 200 g/ha, PREEMERGENCE", "result": 2}, {"measurement": "Plant response rating, Rice", "setting": "rice; POSTEMERGENCE, Rate 50 g/ha", "result": 4}, {"measurement": "Plant response rating, Rice", "setting": "rice; POSTEMERGENCE, Rate 200 g/ha", "result": 5}, {"measurement": "Plant response rating, Rice", "setting": "rice; PREEMERGENCE, Rate 50 g/ha", "result": 0}, {"measurement": "Plant response rating, Rice", "setting": "rice; Rate 200 g/ha, PREEMERGENCE", "result": 2}, {"measurement": "Plant response rating, Peanuts", "setting": "peanut; POSTEMERGENCE, Rate 125 g/ha", "result": 0}, {"measurement": "Plant response rating, Peanuts", "setting": "peanut; POSTEMERGENCE, Rate 250 g/ha", "result": 0}, {"measurement": "Plant response rating, Peanuts", "setting": "peanut; PREEMERGENCE, Rate 125 g/ha", "result": 0}, {"measurement": "Plant response rating, Peanuts", "setting": "peanut; PREEMERGENCE, Rate 250 g/ha", "result": 0}, {"measurement": "Plant response rating, Wild oat", "setting": "wild oat; POSTEMERGENCE, Rate 50 g/ha", "result": 3}, {"measurement": "Plant response rating, Wild oat", "setting": "wild oat; POSTEMERGENCE, Rate 200 g/ha", "result": 3}, {"measurement": "Plant response rating, Wild oat", "setting": "wild oat; Rate 200 g/ha, PREEMERGENCE", "result": 1}, {"measurement": "Plant response rating, Wild buckwheat", "setting": "wild buckwheat; POSTEMERGENCE, Rate 50 g/ha", "result": 10}, {"measurement": "Plant response rating, Wild buckwheat", "setting": "wild buckwheat; POSTEMERGENCE, Rate 200 g/ha", "result": 10}, {"measurement": "Plant response rating, Wild buckwheat", "setting": "wild buckwheat; PREEMERGENCE, Rate 50 g/ha", "result": 2}, {"measurement": "Plant response rating, Wild buckwheat", "setting": "wild buckwheat; Rate 200 g/ha, PREEMERGENCE", "result": 5}]}]}
